Data reported in patent US5641780A, “Pyrrolo-indole derivatives” (priority 1994, dated 1997).
Like-named read-outs stand apart in the source and are kept apart here.

Tests used:
HeLaS3 cells = experiment: Growth Inhibitory Effect Against HeLaS3 cells; type: cell-based
Experimental: HeLaS3 cells were suspended in MEM medium containing 10% fetal calf serum and 2 mM glutamine to a concentration of 2.67×10^4 cells/ml. The cell suspension thus prepared was put into wells of a 24-well culture plate in an amount of 0.75 ml per well. After the cells were incubated in a CO2 incubator overnight at 37° C., Compound (I) which had been appropriately diluted with a culture medium was added to each well in an amount of 0.25 ml.
The cells were further incubated in the CO2 incubator for 72 hours, and the culture supernatant was removed. Then, the cells were dispersed in a solution of trypsin and EDTA, and recovered. The number of the cells was counted using a cell counter. The concentration of Compound (I) at which the growth of the cells is inhibited by 50% was calculated by comparing the number of untreated cells with the number of the cells treated with Compound (I) at known concentrations, and the value was defined as IC50.

Sarcoma 180 tumor = experiment: Therapeutic Effect on Sarcoma 180 Tumor; type: in vivo, male ddY-strain mice; details: Mus musculus, determined seven days after implantation; for response vs control in vivo at 0.5 mg/kg: read-out: T/C (average tumor volume treated / control), dose 0.50 mg/kg, intravenous, one day after implantation
Experimental: Five male ddY-strain mice each weighing 18-20 g were used for each group as test animals, and 5×10^5 Sarcoma 180 tumor cells were implantedat the axilla subcutaneously. One day after the implantation, 0.2 ml of a physiological saline containing Compound (I) at the concentration shown in Table 3 was intravenously administered to each mouse. T/C [T: average tumor volume (mm^3) of the group treated with the test compound, C: average tumor volume (mm^3) of the control group (to which 0.2 ml of a physiological saline was intravenously administered)] was determined seven days after the implantation.

ddY-strain male mice = experiment: Acute toxicity (minimum lethal dose); type: in vivo; details: intravenous, mortality at 14 days after administration
Experimental: Compound (I) was intravenously administered to ddY-strain male mice each weighing 20±1 g. MLD (minimum lethal dose) was determined by observing the mortality at 14 days after administration.

[1] = Homo sapiens, HeLa S3, 72 hours, 37° C., cell counter, read-out: IC50, growth inhibition of HeLaS3 cells
[2] = Sarcoma-180, 168 h, dose 8.0 mg/kg, intravenous, one day after implantation, read-out: T/C (average tumor volume treated / control)
[3] = Homo sapiens, HeLa S3, 72 h, read-out: IC50, growth inhibition of HeLaS3 cells, 72 hours, 37° C., cell counter
[4] = Sarcoma-180, 168 h, dose 4.0 mg/kg, intravenous, one day after implantation, read-out: T/C (average tumor volume treated / control)
[5] = Sarcoma-180, iv, 168 h, read-out: T/C (average tumor volume treated / control), dose 4.0 mg/kg, intravenous, one day after implantation

| SMILES | IC50 (HeLaS3 cells; [1]) | IC50 (HeLaS3 cells; [3]) | MLD (minimum lethal dose) (ddY-strain male mice) | other results |
| --- | --- | --- | --- | --- |
| COC(=O)c1c(C)[nH]c2c(OCc3ccccc3)cc3c(c12)C(CBr)CN3C(=O)c1cc2cc(OC)c(OC)c(OC)c2[nH]1 (stereo not drawn) [Compound 1] | 5.1 nM | – | – | response vs control in vivo at 8 mg/kg (Sarcoma 180 tumor; [2]): 19% |
| COC(=O)c1c(C)[nH]c2c(OC)cc3c(c12)C(CBr)CN3C(=O)c1cc2cc(OC)c(OC)c(OC)c2[nH]1 (stereo not drawn) [Compound 2] | 6.3 nM | – | – | response vs control in vivo at 8 mg/kg (Sarcoma 180 tumor; [2]): 27% |
| COC(=O)c1c(C)[nH]c2c(OS(C)(=O)=O)cc3c(c12)C(CBr)CN3C(=O)c1cc2cc(OC)c(OC)c(OC)c2[nH]1 (stereo not drawn) [Compound 4] | 4 nM | – | – | response vs control in vivo at 16 mg/kg (Sarcoma 180 tumor; Sarcoma-180, 168 h, dose 16 mg/kg, intravenous, one day after implantation, read-out: T/C (average tumor volume treated / control)): 20% |
| COC(=O)c1c(C)[nH]c2c(OC(C)=O)cc3c(c12)C(CBr)CN3C(=O)c1cc2cc(OC)c(OC)c(OC)c2[nH]1 (stereo not drawn) [Compound 6] | – | 0.13 nM | 0.25 mg/kg | response vs control in vivo at 0.5 mg/kg (Sarcoma 180 tumor; Sarcoma-180, iv, 168 h): 18% |
| COC(=O)Oc1cc2c(c3c(C(=O)OC)c(C)[nH]c13)C(CBr)CN2C(=O)c1cc2cc(OC)c(OC)c(OC)c2[nH]1 (stereo not drawn) [Compound 7] | – | 0.082 nM | 0.50 mg/kg | response vs control in vivo at 0.5 mg/kg (Sarcoma 180 tumor; Sarcoma-180, iv, 168 h): 10% |
| COC(=O)c1c(C)[nH]c2c(OC(=O)Oc3ccccc3)cc3c(c12)C(CBr)CN3C(=O)c1cc2cc(OC)c(OC)c(OC)c2[nH]1 (stereo not drawn) [Compound 8] | – | 0.051 nM | 0.50 mg/kg | response vs control in vivo at 0.5 mg/kg (Sarcoma 180 tumor; Sarcoma-180, iv, 168 h): 9% |
| COC(=O)c1c(C)[nH]c2c(OC(=O)NCC(=O)O)cc3c(c12)C(CBr)CN3C(=O)c1cc2cc(OC)c(OC)c(OC)c2[nH]1 (stereo not drawn) [Compound 10] | 0.23 nM | – | > 4.0 mg/kg | response vs control in vivo at 4 mg/kg (Sarcoma 180 tumor; [4]): 10% |
| COC(=O)c1c(C)[nH]c2c(OC(=O)NC(Cc3ccccc3)C(=O)O)cc3c(c12)C(CBr)CN3C(=O)c1cc2cc(OC)c(OC)c(OC)c2[nH]1 (stereo not drawn) [Compound 11] | 0.17 nM | – | > 4.0 mg/kg | response vs control in vivo at 4 mg/kg (Sarcoma 180 tumor; [4]): 7% |
| COC(=O)c1c(C)[nH]c2c(OC(C)=O)cc3c(c12)C(CBr)CN3C(=O)/C=C/c1ccc(OC)cc1 (stereo not drawn) [Compound 14] | – | 0.31 nM | 2.0 mg/kg | response vs control in vivo at 4 mg/kg (Sarcoma 180 tumor; [5]): 22% |
| COC(=O)c1c(C)[nH]c2c(OC(=O)SC)cc3c(c12)C(CBr)CN3C(=O)/C=C/c1ccc(OC)cc1 (stereo not drawn) [Compound 15] | 0.43 nM | – | – | response vs control in vivo at 1 mg/kg (Sarcoma 180 tumor; Sarcoma-180, 168 h, dose 1.0 mg/kg, intravenous, one day after implantation, read-out: T/C (average tumor volume treated / control)): 36% |
| COC(=O)c1c(C)[nH]c2c(OC(=O)c3cccnc3)cc3c(c12)C(CBr)CN3C(=O)/C=C/c1ccc(OC)cc1 (stereo not drawn) [Compound 16] | 0.4 nM | – | – | response vs control in vivo at 2 mg/kg (Sarcoma 180 tumor; Sarcoma-180, 168 h, dose 2.0 mg/kg, intravenous, one day after implantation, read-out: T/C (average tumor volume treated / control)): 33% |
| COC(=O)c1c(C)[nH]c2c(OC(=O)NN3CCN(C)CC3)cc3c(c12)C(CBr)CN3C(=O)/C=C/c1ccc(OC)cc1 (stereo not drawn) [Compound 18] | – | 0.54 nM | – | response vs control in vivo at 8 mg/kg (Sarcoma 180 tumor; Sarcoma-180, iv, 168 h, read-out: T/C (average tumor volume treated / control), dose 8.0 mg/kg, intravenous, one day after implantation): 18% |
| COC(=O)c1c(C)[nH]c2c(OC(=O)NN3CCN(C)CC3)cc3c(c12)C(CBr)CN3C(=O)/C=C/c1ccc(OC)cc1 (stereo not drawn) [Compound 19] | – | – | > 8.0 mg/kg | IC50 (HeLaS3 cells; read-out: IC50, growth inhibition of HeLaS3 cells, 72 hours, 37° C., cell counter): 0.53 nM; response vs control in vivo at 4 mg/kg (Sarcoma 180 tumor; [5]): 26% |
| COC(=O)c1c(C)[nH]c2c(OC(=O)NN3CCOCC3)cc3c(c12)C(CBr)CN3C(=O)/C=C/c1ccc(OC)cc1 (stereo not drawn) [Compound 20] | 6.7 nM | – | – | – |
| COC(=O)c1c(C)[nH]c2c(OC(=O)c3nccnc3N)cc3c(c12)C(CBr)CN3C(=O)/C=C/c1ccc(OC)cc1 (stereo not drawn) [Compound 21] | 0.38 nM | – | – | – |
| COC(=O)c1c(C)[nH]c2c(OC(=O)c3ccc(N)c(N)c3)cc3c(c12)C(CBr)CN3C(=O)/C=C/c1ccc(OC)cc1 (stereo not drawn) [Compound 22] | 2.7 nM | – | – | – |
